The results in this text go back to article PMC5848165 (Toxins, 2018).

Molecules are shown by their SMILES. Residues, ends and D or L forms follow the SMILES beside them.

One test concerns the target T1, rNav1.3 (Rattus norvegicus, UniProt P08104).
T1 construct: expressed in transfected cells; host or cells: HEK293 (HEK293T) cells, transient
As to the kind of experiment: Whole-cell patch clamp, Nav1.3 in HEK293 cells. In kind it is cell-based. Conditions: −10 mV from −80 mV holding. An excerpt: Nine sodium channel subtypes have been identified and classified as TTX-S (Nav1.1–Nav1.4, Nav1.6, and Nav1.7) or TTX-R types (Nav1.5, Nav1.8, and Nav1.9). […] However, the subtype selectivity of JZTX-34 on the subtype of sodium channel is still unknown. In this work, effects of JZTX-34 on VGSC subtypes (Nav1.1–Nav1.8) were examined. Nav1.1–Nav1.7 were transfected into HEK293 cells and Nav1.8 currents were expressed in ND cells. Inward sodium currents were elicited by a 50 ms depolarizing potential to −10 mV from a holding potential of −80 mV every 5 s. […] No effects on other sodium channel subtypes were found (Nav1.1, Nav1.2, Nav1.4–Nav1.6, and Nav1.8) (Figure S2).
Figure 2 Selectivity of JZTX-34 on sodium channel subtypes. […]
(§1) The HEK293T cells were maintained in standard culture conditions (5% CO2 and 37 °C). […] After culturing for 36–72 h, cells with obvious green fluorescence were selected for sodium currents recordings the internal solution for sodium currents recording that contained (in mM) 140 CsF, 5 NaCl, 10 HEPES, 3 Na2-ATP, and 10 EGTA. […]
(§2) Sodium currents were recorded from DRG, HEK293, and ND cells by the whole-cell patch-clamp technique at 25 °C. […] Experiments date were acquired from whole-cell Axon 700B patch clamp amplifier (Molecular Devices, Sunnyvale, CA, USA) and analyzed by the program Clampfit10.0 (Molecular Devices, Sunnyvale, CA, USA) and Sigmaplot. […]

Another test addresses T2, Nav1.7 D816R (Homo sapiens, UniProt Q15858, D827R).
T2 construct: expressed in transfected cells; host or cells: HEK293 (HEK293T) cells, transient
The test can be described thus: Whole-cell patch clamp, Nav1.7 mutant D816R in HEK293 cells. In kind it is cell-based.
From the text: We next investigated the critical residues in DIIS3-S4 linker that determined the sensitivity of Nav1.7 to JZTX-34. An acidic residue, D816, is present in the DIIS3-S4 linker of Nav1.7, while the corresponding residue in Nav1.5 is an alkaline amino acid, R800. To determine whether the acidic residue D816 occupies an important role in toxin binding, we constructed two mutants: D816R of Nav1.7 and R800D of Nav1.5. One µM of JZTX-34 inhibited 54.3 ± 5.2% of WT Nav1.7 currents (Figure 4A), but only 16.8 ± 4.6% currents of D816R were inhibited at the same concentration (Figure 4B). […] To further confirm the key role of D816R in blocking Nav1.7 by JZTX-34, we examined the effect of JZTX-34 on Nav1.5 mutant R800D. […] Thus, the acidic residue D816 in DIIS3-S4 linker may be critical for the sensitivity of Nav1.7 to JZTX-34.
Figure 4 Effects of JZTX-34 on mutants of Nav1.7 and Nav1.5. (A) Amino acid sequence alignment of DII S3-S4 linker of Nav1.5 and Nav1.7 and schematic diagram of sodium channel α subunit. The positions of amino acids of interest are shaded in bold black. […]
as §1, §2
Data from Axon 700B patch clamp were analyzed by Clampfit10.0 (Molecular Devices, Sunnyvale, CA, USA). […] The G-V curves were obtained by calculating the conductance (G) at each voltage (V) using the equation G = I/(V1 − Vrev), with Vrev being the reversal potential determined for each cell individually. […]
(The patch-clamp technique gives a direct electrical read-out from membranes.)

T2 sequence (Q15858 other isoform, or with tags, fused parts or gaps D816R): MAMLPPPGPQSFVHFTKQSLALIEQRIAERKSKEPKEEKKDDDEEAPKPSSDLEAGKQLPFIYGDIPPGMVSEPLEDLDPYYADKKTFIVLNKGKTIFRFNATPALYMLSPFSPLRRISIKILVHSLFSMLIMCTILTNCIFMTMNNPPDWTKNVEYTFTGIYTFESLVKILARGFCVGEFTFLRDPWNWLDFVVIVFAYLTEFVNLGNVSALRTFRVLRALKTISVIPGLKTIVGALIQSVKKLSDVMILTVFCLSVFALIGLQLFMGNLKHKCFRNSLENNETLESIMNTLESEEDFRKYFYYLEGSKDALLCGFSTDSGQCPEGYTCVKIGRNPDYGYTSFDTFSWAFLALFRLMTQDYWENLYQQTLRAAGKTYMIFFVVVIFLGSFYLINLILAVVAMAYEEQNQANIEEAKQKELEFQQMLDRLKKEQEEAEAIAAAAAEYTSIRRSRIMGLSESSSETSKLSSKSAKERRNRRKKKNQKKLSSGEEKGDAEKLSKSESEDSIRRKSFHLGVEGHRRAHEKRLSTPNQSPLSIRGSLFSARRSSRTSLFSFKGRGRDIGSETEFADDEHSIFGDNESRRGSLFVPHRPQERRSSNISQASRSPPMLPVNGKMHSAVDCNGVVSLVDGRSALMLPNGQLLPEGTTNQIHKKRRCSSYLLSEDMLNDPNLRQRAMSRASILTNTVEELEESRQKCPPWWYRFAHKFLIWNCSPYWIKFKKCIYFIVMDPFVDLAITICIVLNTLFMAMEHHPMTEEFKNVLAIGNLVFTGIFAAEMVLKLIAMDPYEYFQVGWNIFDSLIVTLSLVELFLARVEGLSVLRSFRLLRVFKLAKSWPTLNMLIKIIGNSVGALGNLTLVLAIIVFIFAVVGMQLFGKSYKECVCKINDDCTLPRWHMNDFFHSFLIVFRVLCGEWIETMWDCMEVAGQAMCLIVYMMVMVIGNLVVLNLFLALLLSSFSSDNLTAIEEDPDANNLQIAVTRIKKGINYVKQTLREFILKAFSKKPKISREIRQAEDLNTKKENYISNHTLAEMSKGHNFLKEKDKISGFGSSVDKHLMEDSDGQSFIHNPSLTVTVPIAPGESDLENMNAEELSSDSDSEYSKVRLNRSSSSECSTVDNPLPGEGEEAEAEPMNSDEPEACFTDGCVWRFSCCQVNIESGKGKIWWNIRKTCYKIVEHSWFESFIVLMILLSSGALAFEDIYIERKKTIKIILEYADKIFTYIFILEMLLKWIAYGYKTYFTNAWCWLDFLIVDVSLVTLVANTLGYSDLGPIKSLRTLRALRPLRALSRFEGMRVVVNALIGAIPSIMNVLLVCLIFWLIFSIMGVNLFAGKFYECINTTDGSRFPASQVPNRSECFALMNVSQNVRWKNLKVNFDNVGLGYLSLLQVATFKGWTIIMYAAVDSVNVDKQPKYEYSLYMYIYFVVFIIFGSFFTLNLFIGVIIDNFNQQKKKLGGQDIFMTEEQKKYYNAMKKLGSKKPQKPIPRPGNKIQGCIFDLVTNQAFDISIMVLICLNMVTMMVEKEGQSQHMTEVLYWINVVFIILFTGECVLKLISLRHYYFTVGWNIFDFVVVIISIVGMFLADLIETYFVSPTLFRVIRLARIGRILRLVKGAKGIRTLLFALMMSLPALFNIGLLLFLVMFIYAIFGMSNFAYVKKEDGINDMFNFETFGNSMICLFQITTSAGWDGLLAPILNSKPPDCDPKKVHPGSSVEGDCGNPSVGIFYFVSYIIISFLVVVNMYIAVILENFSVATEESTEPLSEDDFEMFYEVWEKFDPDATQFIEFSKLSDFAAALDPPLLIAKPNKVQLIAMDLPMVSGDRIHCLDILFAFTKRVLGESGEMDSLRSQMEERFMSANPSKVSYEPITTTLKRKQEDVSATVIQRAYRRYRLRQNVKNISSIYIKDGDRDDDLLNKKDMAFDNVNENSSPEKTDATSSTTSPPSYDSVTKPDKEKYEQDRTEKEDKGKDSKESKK
T2 sequence (Q07699 19-218, further chain): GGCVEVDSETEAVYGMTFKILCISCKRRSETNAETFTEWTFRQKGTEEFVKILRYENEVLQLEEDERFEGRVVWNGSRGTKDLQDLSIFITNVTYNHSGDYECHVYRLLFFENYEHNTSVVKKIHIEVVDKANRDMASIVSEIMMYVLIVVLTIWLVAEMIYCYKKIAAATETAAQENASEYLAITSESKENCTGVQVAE
T1 sequence (Q07699 19-218): as the sequence (Q07699 19-218, further chain) above
T1 sequence (P08104 whole entry): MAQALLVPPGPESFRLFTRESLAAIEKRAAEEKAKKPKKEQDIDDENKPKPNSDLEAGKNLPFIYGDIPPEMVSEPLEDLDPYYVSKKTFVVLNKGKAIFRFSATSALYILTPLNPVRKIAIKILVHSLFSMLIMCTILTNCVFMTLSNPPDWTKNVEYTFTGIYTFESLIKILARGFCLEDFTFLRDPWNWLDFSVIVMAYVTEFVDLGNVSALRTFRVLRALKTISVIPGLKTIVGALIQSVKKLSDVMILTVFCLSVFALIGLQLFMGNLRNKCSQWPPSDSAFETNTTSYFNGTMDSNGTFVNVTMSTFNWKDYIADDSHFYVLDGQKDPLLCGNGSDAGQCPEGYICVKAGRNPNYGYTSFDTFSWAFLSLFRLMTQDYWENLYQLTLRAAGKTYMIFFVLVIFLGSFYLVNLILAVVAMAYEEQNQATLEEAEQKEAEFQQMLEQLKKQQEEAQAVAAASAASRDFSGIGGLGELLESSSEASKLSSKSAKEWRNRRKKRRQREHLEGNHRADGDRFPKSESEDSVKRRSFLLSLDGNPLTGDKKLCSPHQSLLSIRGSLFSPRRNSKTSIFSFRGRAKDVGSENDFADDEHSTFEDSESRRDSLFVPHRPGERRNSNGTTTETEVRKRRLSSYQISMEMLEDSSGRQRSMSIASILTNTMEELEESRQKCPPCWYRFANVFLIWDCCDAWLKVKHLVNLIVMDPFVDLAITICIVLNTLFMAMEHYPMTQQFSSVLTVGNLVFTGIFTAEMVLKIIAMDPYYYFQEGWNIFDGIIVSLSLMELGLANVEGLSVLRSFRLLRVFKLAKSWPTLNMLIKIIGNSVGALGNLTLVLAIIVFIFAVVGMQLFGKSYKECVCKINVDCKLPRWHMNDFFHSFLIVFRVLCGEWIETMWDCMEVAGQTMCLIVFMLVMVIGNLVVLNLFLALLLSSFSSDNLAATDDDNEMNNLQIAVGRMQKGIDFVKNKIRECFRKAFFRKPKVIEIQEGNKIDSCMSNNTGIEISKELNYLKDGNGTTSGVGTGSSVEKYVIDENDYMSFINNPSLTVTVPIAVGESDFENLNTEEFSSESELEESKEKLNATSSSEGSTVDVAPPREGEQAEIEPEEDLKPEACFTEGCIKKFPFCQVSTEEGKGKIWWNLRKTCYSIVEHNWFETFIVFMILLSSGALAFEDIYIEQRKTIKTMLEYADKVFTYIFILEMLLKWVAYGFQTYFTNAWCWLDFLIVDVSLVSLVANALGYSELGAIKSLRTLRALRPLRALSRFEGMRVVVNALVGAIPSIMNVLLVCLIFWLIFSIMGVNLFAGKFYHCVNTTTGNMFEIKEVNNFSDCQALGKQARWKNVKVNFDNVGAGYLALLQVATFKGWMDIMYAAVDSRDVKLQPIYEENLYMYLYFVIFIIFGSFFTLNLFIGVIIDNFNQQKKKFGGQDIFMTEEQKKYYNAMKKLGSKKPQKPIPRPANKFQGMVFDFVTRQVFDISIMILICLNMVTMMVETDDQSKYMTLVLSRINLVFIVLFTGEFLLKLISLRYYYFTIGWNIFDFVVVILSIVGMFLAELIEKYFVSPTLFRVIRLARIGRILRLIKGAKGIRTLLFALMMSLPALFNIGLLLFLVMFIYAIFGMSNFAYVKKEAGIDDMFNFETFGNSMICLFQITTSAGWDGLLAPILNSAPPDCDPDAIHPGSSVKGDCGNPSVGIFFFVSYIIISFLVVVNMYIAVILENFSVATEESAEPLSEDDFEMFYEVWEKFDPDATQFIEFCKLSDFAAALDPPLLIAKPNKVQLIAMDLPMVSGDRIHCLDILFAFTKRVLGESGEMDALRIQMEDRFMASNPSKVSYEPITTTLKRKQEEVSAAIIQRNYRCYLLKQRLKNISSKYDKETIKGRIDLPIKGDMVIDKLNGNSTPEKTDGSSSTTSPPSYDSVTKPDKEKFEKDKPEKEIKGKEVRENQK

By IC50 is commonly meant the midpoint of a concentration-inhibition curve. Usually inhibition stands for the drop in the measured response relative to a control, in per cent. `CC(C)C[C@@H]1NC(=O)[C@H](Cc2c[nH]c3ccccc23)NC(=O)[C@H](CCC(=O)O)NC(=O)[C@H](CCCNC(=N)N)NC(=O)[C@@H](NC(=O)[C@H](C)N)CSSC[C@@H]2NC(=O)[C@@H]3CSSC[C@@H](C(=O)N[C@H](C(=O)N[C@@H](Cc4c[nH]c5ccccc45)C(=O)N[C@@H](CC(=O)O)C(=O)N[C@@H](Cc4c[nH]c5ccccc45)C(=O)N[C@H](C(=O)N[C@H](C(=O)O)C(C)C)[C@@H](C)O)C(C)C)NC(=O)[C@H](Cc4c[nH]cn4)NC(=O)[C@H](Cc4ccc(O)cc4)NC(=O)[C@@H]4CCCN4C(=O)[C@H](Cc4c[nH]c5ccccc45)NC(=O)[C@H](CCCCN)NC(=O)[C@H](CCCCN)NC(=O)[C@H](CCCNC(=N)N)NC(=O)[C@H](CSSC[C@H](NC(=O)CNC(=O)CNC1=O)C(=O)N[C@@H](CO)C(=O)N[C@@H](CCCCN)C(=O)N[C@@H](CC(=O)O)C(=O)N[C@@H](C)C(=O)N[C@@H](CC(=O)O)C(=O)N3)NC(=O)[C@H](CCC(=O)O)NC(=O)[C@H](CC(C)C)NC(=O)[C@H](Cc1c[nH]cn1)NC(=O)[C@H](C)NC2=O` [JZTX-34, Jingzhaotoxin-34] (HELM PEPTIDE1{A.C.R.E.W.L.G.G.C.S.K.D.A.D.C.C.A.H.L.E.C.R.K.K.W.P.Y.H.C.V.W.D.W.T.V}$PEPTIDE1,PEPTIDE1,2:R3-16:R3|PEPTIDE1,PEPTIDE1,9:R3-21:R3|PEPTIDE1,PEPTIDE1,15:R3-29:R3$$$V2.0; N-terminus and C-terminus assumed): the “reduction of Nav1.3 currents” value at rNav1.3 (1 µM, mean ± S.E.) is 29.4 ± 4.6%. The IC50 on rNav1.3 (Hill fit, n = 5) is 7.95 µM; against Nav1.7 D816R (Hill fit, n = 5), 19.5 µM. Moreover, the inhibition at 1 µM on Nav1.7 D816R (HEK293, 1 µM, read-out: inhibition of Nav1.7 D816R currents) is 16.8 ± 4.6%. Moreover, the “decrease of binding affinity by D816R vs WT Nav1.7” value at Nav1.7 D816R (relative to WT Nav1.7) was “about 32 fold”.
